# The NIST ThermoML archive (doi:10.1016/j.fluid.2014.05.023)
# Several values for one entry are separate records, joined by “and”; a condition that tells them apart may be missing. Equal entries are not always repeated. Numbers after ± are expanded uncertainties.
# Experiment: activity coefficient (dimensionless); of the first substance listed, at infinite dilution; xn = mol fraction of the nth substance listed
# Details: 101 kPa, Liquid, Chromatography, x1 = 0
Structure (SMILES),activity coefficient (273.35 K),activity coefficient (283.15 K),activity coefficient (293.15 K),activity coefficient (298.15 K),activity coefficient (303.15 K),activity coefficient (313.15 K),activity coefficient (323.15 K),activity coefficient (333.15 K),activity coefficient (341.15 K),activity coefficient (351.15 K),activity coefficient (361.25 K)
CCCCOC(C)=O [butyl ethanoate] + O,613 ± 42,799 ± 55,942 ± 65,1040 ± 72,1080 ± 75,1140 ± 79,1160 ± 80,1140 ± 78,,,
CCCC(=O)OCC [ethyl butanoate] + O,,,993 ± 68,,1090 ± 75,1150 ± 79,1180 ± 81,1180 ± 81,1110 ± 120,1030 ± 110,
CCOC(=O)CC [ethyl propanoate] + O,,,252 ± 17,,291 ± 20,312 ± 21,329 ± 23,343 ± 24,332 and 328,366 and 321,283 ± 57

# Further lines, results first:
activity coefficient (273.35 K),activity coefficient (283.15 K),activity coefficient (293.15 K),activity coefficient (298.15 K),activity coefficient (303.15 K),activity coefficient (313.15 K),activity coefficient (323.15 K),activity coefficient (333.15 K),activity coefficient (341.15 K),activity coefficient (351.15 K),activity coefficient (361.25 K),Structure (SMILES)
44.5 ± 3,54.9 ± 3.8,64.8 and 68,69.2 ± 4.7,73.6 ± 5,80.1 ± 5.5,,,,,,CCOC(C)=O [ethyl acetate] + O
172 ± 12,217 ± 15,274 and 257,261 and 270,281 ± 19,302 ± 21,319 ± 22,321 ± 22,,,,CCCOC(C)=O [propyl ethanoate] + O
